{"source": "patent US20060177499A1", "about": "“Method for the manufacture of a pharmaceutical composition in the form of tablets containing a fibrate and tablets obtained according to the method” (priority 2003, published 2006)", "origin": "cited, not measured here", "settings": "long-term treatment; e.g. rhabdomyolysis, asthenia, increase of transaminases, hepatic toxicity", "data": [{"compound": "CC(C)OC(=O)C(C)(C)Oc1ccc(C(=O)c2ccc(Cl)cc2)cc1", "note": "[fenofibrate, Isopropyl 2-[4-(4-chlorobenzoyl)phenoxy]-2-methylpropionate]", "values": [{"measurement": "adverse effects", "value": "not completely devoid of adverse effects"}]}]}
